According to patent publication US8093211B2, “Methods and pharmaceutical compositions for healing wounds” (Bar-Ilan University, priority 2001, dated 2012):
One block for each molecule: values may come before it. No end group written: not given here. *: point of attachment. Myristoyl = CCCCCCCCCCCCCC(=O)*

Legend:
PKCδ [1] = assay: Translocation of PKCδ from cytosol to membrane in proliferating keratinocytes (Western blot); assay type: cell-based, murine; details: 10^−7 M insulin or 10^−8 M IGF1; as early as 5 minutes following stimulation
Description: Primary keratinocytes were isolated and plated as described in the Examples section that follows. Proliferating keratinocytes were maintained for five days in low Ca^2+ medium (0.05 mM) until they reached 80% confluency. Cells were stimulated with 10^−7 M insulin (Ins) or 10^−8 M IGF1 (IGF) for 15 minutes. Cells were lysed, as described, and 20 μg of membrane or cytosol extracts of stimulated and control unstimulated (Cont) cells were subjected to SDS-PAGE and transfer. Blots were probed with specific polyclonal antibodies to each PKC isoform.
Isolation and culture of murine keratinocytes: Primary keratinocytes were isolated from newborn skin as previously described (18). […]
Preparation of cell extracts and Western blot analysis: For crude membrane fractions, whole cell lysates were prepared by scraping cells into PBS containing 10 μg/ml aprotinin, 10 μg/ml leupeptin, 2 μg/ml pepstatin, 1 mM PMSF, 10 mM EDTA, 200 μM NaVO4 and 10 mM NaF. […] Protein concentrations were measured using a modified Lowery assay (Bio-Rad DC Protein Assay Kit). […]
In order to try and identify the endogenous factors, which activate specific PKC isoforms regulating skin proliferation, the ability of several growth factors which are known to promote keratinocyte proliferation including: EGF, KGF, insulin, PDGF and IGF1 to activate specific PKC isoforms in a growth dependent manner was assessed. […]

primary keratinocytes = assay: Keratinocyte proliferation by [3H]thymidine incorporation; assay type: cell-based, murine; details: for concentration of maximal induction of thymidine incorporation: stimulated for 24 hours, proliferating keratinocytes in low Ca2+
Description: Proliferating keratinocytes were maintained for five days in low Ca^2+ medium (0.05 mM) until they reached 80% confluence. (A) Five-day keratinocyte cultures were stimulated for 24 hours with insulin or IGF1 at the designated concentrations. (B) In parallel, keratinocytes were stimulated with 10^−7 M insulin (Ins) and increasing doses of IGF1 (IGF). At each concentration the right column (striped bar) represents proliferation observed when both hormones were added together. […] Thymidine incorporation was measured as described in experimental procedures. The results shown are representative of 6 experiments. Each bar represents the mean±SE of 3 determinations expressed as percent above control unstimulated keratinocytes.
Non-infected (light blue bars), or cells over-expressing WTPKCδ (dark blue bars) or DNPKCδ (slashed blue bars) were treated for 24 hours with 10^−7 M insulin (Ins), 10^−8 M IGF1 (IGF) or both (Ins+IGF). Thymidine incorporation was measured as described in experimental procedures. Each bar represents the mean±SE of 3 determinations in 3 experiments done on separate cultures. Values are expressed as percent of control, unstimulated cells from the same culture in each experiment.
Isolation and culture of murine keratinocytes: Primary keratinocytes were isolated from newborn skin as previously described (18). Keratinocytes were cultured in Eagle's Minimal Essential Medium (EMEM) containing 8% Chelex (Chelex-100, BioRad) treated fetal bovine serum. To maintain a proliferative basal cell phenotype, the final Ca^2+ concentration was adjusted to 0.05 mM. Experiments were performed five to seven days after plating.
Cell proliferaion: Cell proliferation was measured by [^3H]thymidine incorporation in 24 well plates. Cells were pulsed with [^3H]thymidine (1 μCi/ml) overnight. After incubation, cells were washed five times with PBS and 5% TCA was added into each well for 30 minutes. The solution was removed and cells were solubilized in 1% Triton X-100. The labeled thymidine incorporated into cells was counted in a ^3H-window of a Tricarb liquid scintillation counter.

PKCδ [2] = assay: PKCδ kinase activity of immunoprecipitates from stimulated keratinocytes; assay type: cell-based, murine; details: 10^−7 M insulin or 10^−8 M IGF1 for 1, 15 or 30 minutes
Description: To determine PKCδ activity, five-day keratinocyte cultures were stimulated with 10^−7 M insulin (Ins) or 10^−8 M IGF1 (IGF) for the designated times (1, 15, or 30 minutes). PKCδ was immunoprecipitated from membrane (blue bars, mem) and cytosol (purple bars, cyto) fractions using specific anti-PKCδ antibody. PKCδ immunoprecipitates were analyzed for PKC activity utilizing an in vitro kinase assay as described in experimental procedures. Each bar represents the mean±SE of 3 determinations in 3 separate experiments. Values are expressed as pmol ATP/dish/min.
(§1) PKC activity: Specific PKC activity was determined in freshly prepared immunoprecipitates from keratinocyte cultures following appropriate treatments. These lysates were prepared in RIPA buffer without NaF. Activity was measured with the use of the SignaTECT Protein Kinase C Assay System (Promega, Madison, Wis., USA) according to the manufacturer's instructions. PKCα pseudosubstrate was used as the substrate in these studies.
(§2) In order to determine whether the translocation of PKCδ is sufficient for activation, kinase activity of PKC immunoprecipitates from the cytoplasm and membrane fractions of insulin and IGF1 treated keratinocytes was measured.

[3] = test system: incision wounds on the back of C57BL mice; assay: Effect of PKCα inhibitor and insulin on wound inflammation in vivo (Example 23); details: for Incidence of severe inflammation I wound (%): treated daily for 7 days, 1 μM of each agent, observed seven days after wounding
Description: Late and severe inflammatory response in wounds may suppress the process of healing, thus preventing such inflammation from development may promote the wound healing process. Accordingly, the effect of PKCα inhibitor and insulin on wound inflammation was tested in the following experiment. Wounds were effected on the back of C57BL mice by incision and were treated daily for 7 days with: (i) PBS, control; (ii) 1 μM of a PKCα inhibitor (pseudosubstrate myristolated; Calibiochem, USA); (iii) 1 μM insulin (Eli Lilly, USA); or a mixture of 1 μM PKCα inhibitor and 1 μM insulin.

PKCs α, ε, η, or ζ = assay: Kinase activity of other PKC isoforms after insulin stimulation of keratinocytes; assay type: cell-based, murine; details: up to 30 minutes following insulin stimulation
Description: as §1, §2

[4] = test system: incision wounds on the back of C57BL mice; assay: Single vs. multiple applications of insulin for wound healing in vivo (Example 20)
Description: Wounds were effected on the back of 8-10 week old C57BL mice by incision and were treated with different concentrations and frequencies of insulin applications (i.e., seven daily repeat applications vs. a single application). The treated mice were sacrificed seven days after wounding and the areas of treated wounds were measured. The results are presented as mm^2 wound area and each bar represents the mean of six replications±standard deviation (p<0.005).
Wounds were effected on the back of 8-10 week old C57BL mice by incision and were treated with different concentrations of insulin and frequencies of applications (i.e., seven daily repeat applications vs. a single application). Histological wound sections were performed seven days after wounding and were analyzed for epidermal and dermal closure (wound contraction). Epidermal closure was assessed by Keratin 14 (K14) antibody staining (left panel) and was considered positive if the wound was stained positive across the entire gap. The dermal closure was considered positive if both dermal wound sides could be observed under a light microscope in a single field at ×10 magnification (right panel). The results are presented as percent of wound closure over control and each bar represents the mean of six replications.
Wounds were effected on the back of 8-10 week old C57BL mice by incision and were treated as follows: (i) insulin 0.1 μM applied daily for 7 days; (ii) insulin 1 μM applied daily for 7 days; (iii) insulin 10 μM applied daily for 7 days; (iv) insulin 1 μM applied once 4 days after wounding; and (v) vehicle (PBS) control applied daily for 7 days. All mice were sacrificed seven days after wounding and their open wound areas were measured.
Since the observed wounds were covered with a scar tissue it was difficult to correctly assess the actual closure of the wound and the formation of reconstructed epidermis. Therefore the effects of insulin on epidermal and dermal closure of wounds tissue were determined by histological parameters. Epidemial closure of wounds was determined by staining wound sections with Keratin 14 antibody (K14, Babco-Convance, Richmond, Calif., USA) which highlighted the formation of basal cells at the wound gap. Dermal closure of wounds was considered positive if both wound sides the dermis could be observed in a single field observed under a light microscope at ×10 magnification.

[5] = test system: over-expressed PKC isoforms; assay: Translocation of over-expressed PKC isoforms by PKC activator in infected keratinocytes; assay type: cell-based, mouse; details: stimulated for 30 minutes, 24 hours following infection
Description: Four day old primary keratinocytes were infected for 1 hour with isoform specific recombinant PKC adenoviruses. Twenty four hours following infection, cells were either untreated (C) or stimulated with bryostatin 1 (B) for 30 minutes, and fractionated. Protein samples were subjected to Western blotting and analyzed using isoform specific anti-PKC antibodies.
Preparation of cell extracts and Western blot analysis: For crude membrane fractions, whole cell lysates were prepared by scraping cells into PBS containing 10 μg/ml aprotinin, 10 μg/ml leupeptin, 2 μg/ml pepstatin, 1 mM PMSF, 10 mM EDTA, 200 μM NaVO4 and 10 mM NaF. After homogenization and 4 freeze/thaw cycles, lysates were spun down at 4° C. for 20 minutes in a microcentrifuge at maximal speed. The supernatant containing the soluble cytosol protein fraction was transferred to another tube. The pellet was resuspended in 250 μl PBS containing 1% Triton X-100 with protease and phosphatase inhibitors, incubated for 30 minutes at 4° C. and spun down in a microcentrifuge at maximal speed at 4° C. The supernatant contains the membrane fraction. Protein concentrations were measured using a modified Lowery assay (Bio-Rad DC Protein Assay Kit). Western blot analysis of cellular protein fractions was carried out as described (6). […]

STAT3 = assay: Insulin induced STAT3 activation and nuclear translocation in keratinocytes (immunofluorescence); assay type: cell-based, murine; details: 5 μM Rottlerin for 7 minutes, followed by 10^−7 M insulin for 5 minutes
Description: Primary keratinocytes were plated on glass slides and maintained for 5 days in low Ca^++ medium (0.05 mmol/l) until they reached 80% confluency. Cells were untreated (Cont, upper panel) or pre-treated with 5 μM Rottlerin for 7 minutes (R, lower panel), followed by 10^−7 M insulin for 5 minutes (Ins). Cells were fixed by methanol, washed and air-dried. Cultures were analyzed by immunofluorescence using antiphospho-Tyr-705-STAT3 antibody, followed by FITC conjugated secondary antibody. Cells were scanned by confocal microscopy.
Immunofluorescence: Primary keratinocytes were plated on laminin 5 coated glass slides. Two days old keratinocytes were infected with PKC adenovirus for one hour, washed twice with PBS and maintained in culture in low Ca^2+ EMEM. Twenty four hours post infection, cells were fixed in 4% paraformaldehyde for 30 minutes followed by permeabilization with 0.2% Triton for 5 minutes. For analysis, control and PKC infected keratinocytes were rinsed with PBS and incubated overnight at 4° C. with PKC antibodies (Santa Cruz) diluted in 1% BSA in PBS. […] Following two washes in PBS, slides were mounted with glycerol buffer containing 1% of p-phenylenediamine (Sigma) and fluorescence examined by laser scanning confocal imaging microscopy (MRC 1024, Bio-Rad, UK).

Molecule: IGF1: growth factor IGF1, a gift from Cytolab (Israel)
translocation of PKCδ between cytoplasm and membrane fractions (PKCδ [1]): reduced PKCδ expression in the membrane
maximal stimulation of thymidine incorporation, compared at each concentration (primary keratinocytes; 24 hours): greater than that by insulin
concentration of maximal induction of thymidine incorporation (primary keratinocytes): 10^−8 M
activity of PKCδ in the membrane fraction (PKCδ [2]): insulin but not IGF1 increased activity of PKCδ

activation of PKCs α, ε, η, or ζ (PKCs α, ε, η, or ζ): no activation
activity of PKCδ in the membrane fraction (PKCδ [2]): increased activity of PKCδ
Molecule: insulin: humulinR-recombinant human insulin, purchased from Eli Lilly
effect on severe wound inflammation ([3]; 1 μM daily for 7 days): not effective
Incidence of severe inflammation I wound (%) [3]: 56.0%
open wound area ([4]; 1 μM applied once 4 days after wounding, compared with seven repeat daily applications at 1 μM): substantially more effective
open wound area ([4]; 1 μM daily for 7 days, compared with daily 0.1 μM or 10 μM): significantly more effective
epidermal and dermal closure (histology) ([4]; 1 μM daily, compared with daily 0.1 μM or 10 μM): significantly more effective
epidermal and dermal closure (histology) ([4]; all insulin treatments (0.1, 1, 10 μM daily; 1 μM single)): effectively promoted epidermal and dermal closure
epidermal and dermal closure (histology) ([4]; single application 1 μM, compared with seven repeat daily applications at 1 μM): substantially more effective
translocation of PKCδ between cytoplasm and membrane fractions (PKCδ [1]): specifically induced translocation of PKCδ from the cytoplasm to the membranal fractions
concentration of maximal induction of thymidine incorporation (primary keratinocytes): 10^−7 M
increase of thymidine incorporation over untreated cells (primary keratinocytes; untransfected cells, 10^−7 M insulin for 24 hours): two to three fold

Molecule: PKCα inhibitor: PKCα inhibitor of SEQ ID NO:1, PKCα pseudosubstrate myristoylated; Calbiochem (Myristoyl-FARKGALRQ)
decrease of severe wound inflammation incidence, as compared to control ([3]; 1 μM daily for 7 days): 33.3%
Incidence of severe inflammation I wound (%) [3]: 40.0%

Molecule: CCC/C=C/C=C/C(=O)O[C@H]1/C(=C/C(=O)OC)C[C@H]2C[C@H]([C@@H](C)O)OC(=O)C[C@H](O)C[C@@H]3C[C@H](OC(C)=O)C(C)(C)[C@](O)(C[C@@H]4C/C(=C/C(=O)OC)C[C@H](/C=C/C(C)(C)[C@]1(O)O2)O4)O3 [bryostatin 1]
translocation of PKCα and δ proteins to the membrane fraction [5]: induced translocation
translocation of PKCη and ζ isoforms to the membrane fraction [5]: lesser effect

Molecule: CC(=O)c1c(O)c(C)c(O)c(Cc2c(O)c3c(c(C(=O)/C=C/c4ccccc4)c2O)OC(C)(C)C=C3)c1O [rottlerin]
activation and nuclear translocation of STAT3 after insulin (STAT3): inhibits activation as well as nuclear translocation of STAT3
